Measured values reported in patent USRE38970E1, “Indolyl or indolinyl derivatives and medicinal use thereof as ACAT or lipid peroxidation inhibitors” (Kyoto Pharmaceutical Industries, Ltd., priority 1995, dated 2006).
Values after ≈ are worked out from the molar mass of the structure shown.

Tests used:
serum total cholesterol = assay: Serum total cholesterol reducing effect in rats on high cholesterol feed; format: in vivo; details: male Wister rats, vs control
Description: Mile Wister rats weighing 180-200 g were bred under free access to a high cholesterol feed [added with cholesterol (1%), cholic acid (0.5%) and coconut oil (10%), Clea Japan, Inc.] for 3 days, during which period a test compound (3 mg/kg and 10 mg/kg) suspended in 5% gum arabic solution was forcibly administered once a day orally for 3 days. Only 5% gum arabic solution was administered to control animals. After final administration, the test animals were fasted and blood was taken 5 hours later. The serum total cholesterol level was determined using a commercially available assay lit (cholesterol-CII-Test Wako, Wako Pure Chemical Industries, Ltd.).

ACAT = ACAT inhibitory activity (cholesteryl oleate production by small intestine mucosal microsomes); format: biochemical, Japanese white rabbits; details: rabbit small intestine mucosal microsomes, [1-14C] oleoyl CoA, 37° C. 7 minutes, vs control; test concentration not given
plasma lipoperoxidation [1] = assay: In vitro plasma lipoperoxidation inhibitory activity (malondialdehyde production); format: biochemical, Wister rats; details: rat heparinized plasma, test compound final concentration 10^-5M, copper sulfate, malondialdehyde production vs control
Description: Under ether anesthesia, blood was taken from male Wister rats weighing 160-190 g that had been fasted for 16 hours, and heparinized plasma was separated by conventional method. DMSO (10 μl) or a test compound (final concentration 10^−5M) dissolved in DMSO (test compound solution 10 μl) was added to plasma (1.0 ml), and the mixture was incubated at 37° C. for 5 minutes.

[2] = Solubility in buffer pH 6.8; details: for Solubility: buffer pH 6.8, shaken 1 hr at 25° C., HPLC; for solubility at 1 h: buffer pH 6.8, 25 °C, pH 6.8, aqueous buffer, thermodynamic from solid
Description: A pulverized test compound (10 mg) was added to buffer (1 ml, pH 6.8), and the mixture was shaken for 1 br at 25° C.

[3] = Oral administration, plasma concentration in Wister rats; details: 30 mg/kg orally, fasted male Wister rats, sampled 0.5-6 hours
Description: (§1) At 0.5, 1, 2, 4 and 6 hours after administration, blood was taken and heparinized plasma was separated by conventional method.

[4] = Oral administration, plasma concentration in SD rats; details: 30 mg/kg orally, fasted male SD rats, sampled 0.5-6 hours
Description: as §1

plasma lipoperoxidation [5] = assay: Ex vivo plasma lipoperoxidation inhibitory activity after oral administration; format: in vivo; details: male Wister rats, plasma taken 1 hour after administration
Description: Under ether anesthesia, blood was taken from male Wister rats weighing 160-190 g that had been fasted for 16 hours, and heparinized plasma was separated by conventional method.
Only 5% gum arabic solution was administered to control animals. At 1 hour after administration, blood was taken under ether anesthesia and heparinized plasma was separated by conventional method. The plasma (1.0 ml) was processed in the same manner as in Experimental Example 3 and the amount of produced malondialdehyde was determined.

[6] = 3 mg/kg/day orally once a day for 3 days
[7] = 10 mg/kg/day orally once a day for 3 days

Compound	Reduction (%) of serum total cholesterol (serum total cholesterol; [6]) [%]	Reduction (%) of serum total cholesterol (serum total cholesterol; [7]) [%]	ACAT inhibition (%) (ACAT)	Inhibition (%) of plasma lipoperoxidation (plasma lipoperoxidation [1]) [%]	further results
CCCCSCCCCCCN1CCc2c(C)c(CC(=O)O)c(C)c(NC(=O)C(C)(C)C)c21 [Example 121]	87.8	48.1	92.5	41.6	
CCCCCCCCN1CC(CCC(=O)O)c2c(C)cc(C)c(NC(=O)C(C)(C)C)c21 (stereo not shown) [Example 11, N-[(1-octyl-3-(2-carboxyethyl)-4,6-dimethylindolin-7-yl)]-2,2-dimethylpropanamide]				44.5	
CCCCCCN1CCc2c(C)c(CC(=O)O)c(C)c(NC(=O)C(C)(C)C)c21 [Example 18]					Solubility [2]: 7300 µg/mL (≈ 18.8 mM)
CCCCCCCCN1CCc2cc(CC(=O)O)c(C)c(NC(=O)C(C)(C)C)c21 [Example 71]	26.5	52.3		48.1	Solubility [2]: 100 µg/mL (≈ 0.248 mM)
CCCCCCCCCN1CCc2c(C)c(CC(=O)O)c(C)c(NC(=O)C(C)(C)C)c21 [Example 36]					Highest concentration in plasma [3]: 2.2 µg/mL; Solubility [2]: 4200 µg/mL (≈ 9.75 mM); Highest concentration in plasma [4]: 12.2 µg/mL
CCCCCCCCN1CCc2cc(CC(=O)O)c(C)c(NC(=O)C(C)(C)C)c21 [Example 116]	26.5	50.9	92.0	45.5	
CCCCCCCCN1CCc2cc(CO)c(C)c(NC(=O)C(C)(C)C)c21 [Example 76]			94.7	51.7	
CC(C)(Sc1cc(C(C)(C)C)c(O)c(C(C)(C)C)c1)Sc1cc(C(C)(C)C)c(O)c(C(C)(C)C)c1 [Probucol, 4,4-isopropylidenedithiobis(2,6-di-t-butylphenol), reference compound]					Inhibition (%) of plasma lipoperoxidation (plasma lipoperoxidation [5]; 100 mg/kg orally): 15.4%
CCCCCCCCN1CCCc2c(C)c(CC(=O)O)c(C)c(NC(=O)C(C)(C)C)c21 [Example 125, N-(1-octyl-6-carboxymethyl-5,7-dimethyl-1,2,3,4-tetrahydroquinolin-8-yl)-2,2-dimethylpropanamide]	30.2	47.9	93.0	48.0	
CCCCCCCCN1CCc2c(C)c(CC(=O)O)c(C)c(NC(=O)C(C)(C)C)c21 [Example 4, N-(1-octyl-5-carboxymethyl-4,6-dimethylindolin-7-yl)-2,2-dimethylpropanamide]	58.8	57.5		51.2	Highest concentration in plasma [3]: 1.4 µg/mL; Inhibition (%) of plasma lipoperoxidation (plasma lipoperoxidation [5]; 10 mg/kg orally): 39.0%; solubility at 1 h [2]: 6900 µg/mL (≈ 16.6 mM); Highest concentration in plasma [4]: 13.6 µg/mL
CCCCCCCCN1CCc2cc(CN(C)C)c(C)c(NC(=O)C(C)(C)C)c21 [Example 81]	31.7	53.8		47.1	
CCCCCCCCN1CCc2c(C)c(CCC(=O)O)c(C)c(NC(=O)C(C)(C)C)c21 [Example 120, N-(1-octyl-5-carboxyethyl-4,6-dimethylindolin-7-yl)-2,2-dimethylpropanamide]	45.8	44.6	92.3		
CCCCCCCCN1CCc2c(C)c(CO)c(C)c(NC(=O)C(C)(C)C)c21 [Example 1, N-(1-octyl-5-hydroxymethyl-4,6-dimethylindolin-7-yl)-2,2-dimethylpropanamide]	52.8	57.1	99.2	51.7	
CCCCSCCCN1CCc2c(C)c(CC(=O)O)c(C)c(NC(=O)C(C)(C)C)c21 [Example 122]	88.2	50.0	92.0		
Cc1cc(C)c(NC(=O)N(Cc2ccc3c(c2)Cc2ccccc2-3)C2CCCCCC2)c(C)c1 [YM-750, 1-cycloheptyl-1-[(2-fluorenyl)methyl]-3-(2,4,6-trimethyl-phenyl) urea, reference compound]	37.7	46.4	92.0		solubility at 1 h [2]: < 10 µg/mL
CCCCCCCCN1CCc2c(C)c(CC(=O)OCC)c(C)c(NC(=O)C(C)(C)C)c21 [Example 3, N-(1-octyl-5-ethoxycarbonylmethyl-4,6-dimethylindolin-7-yl)-2,2-dimethylpropanamide]	54.2	61.2	92.5	49.2	
CCCCCCCCN1CCc2cc(C(=O)O)c(C)c(NC(=O)C(C)(C)C)c21 [Example 155, N-(1-octyl-5carboxy-6-methylindolin-7-yl)-2,2-dimethylpropanamide]	55.2	58.5		47.7	
CCCCCCCCN1CCc2c(C)c(C(=O)O)c(C)c(NC(=O)C(C)(C)C)c21 [Example 159]	53.8	57.5		48.3	
